Each compound was assayed on yeast-like fungi (C. glabrata) (assay: Flow cytometry of urine specimen spiked with yeast-like fungi: fluorescence stainability of the fungi). Settings: average fluorescence signal of yeast-like fungi in human urine without erythrocytes; substance at 1.0 wt % in diluting liquid in place of 2-phenoxyethanol; relative values on scale 0-255.
Assay type: cell-based
Experimental: A staining liquid was used which was obtained by dissolving a fluorescent dye represented by the following formula in ethylene glycol so that the final concentration in the sample for analysis would be 6 ppm.
In the step S1, the sample preparing section 200 is controlled to execute the preparation of a sample for analysis. The operation of the sample preparing section 200 in the step S1 will be described with reference to FIG. 5. First, the dispensing device 224 sucks 522 μL of a diluting liquid from the sample container 231 of the reagent setting section 222, and then sucks 180 µL of a specimen (human urine) from the specimen container 225 that is set in the specimen setting section 221. The dispensing device 224 then dispenses the sucked diluting liquid and specimen to the reaction vessel 226 that is set in the incubator 223. Next, the dispensing device 224 sucks 18 μL of a staining liquid from the reagent container 227 of the reagent setting section 222, and dispenses the staining liquid to the reaction vessel 226. Thereafter, the incubator 223 stirs the mixture for 10 seconds to stain the diluted specimen while keeping the liquid temperature within the reaction vessel 226 containing the specimen, diluting liquid, and staining liquid to be 35 °C. The sample liquid for analysis thus prepared is sucked by the dispensing device 224, and is supplied to the sample container 233. The sample liquid for analysis supplied to the sample container 233 is let to flow through the flow cell 301 of the detecting section 300.
In the step S2, the detecting section 300 is controlled to detect signals reflecting the characteristics of each particle from the particles in the sample liquid for analysis. The operation of the detecting section 300 in the step S2 will be described with reference to FIG. 6. When the sample liquid is supplied to the sample container 233 as described above, the sample liquid is guided to the nozzle 303 by the operation of pumps and valves (not illustrated). Then, the sample liquid is ejected from the nozzle 303 to the flow cell 301. Simultaneously with this, a sheath liquid is supplied to the flow cell 301 from a sheath liquid container (not illustrated) via a sheath liquid inlet 304. By this, the sample liquid is surrounded by the sheath liquid in the flow cell 301, and is further narrowed down at by the orifice section 302 to flow. By narrowing the flow of the sample liquid, the particles such as erythrocytes and bacteria contained in the sample liquid are arranged in one line to flow through the orifice section 302. A laser beam emitted from the laser light source 306 is condensed by the condenser lens 307 and is radiated to the sample liquid that is flowing through the orifice section 302. The forward scattered light emitted from a particle in the sample liquid irradiated with the laser beam is condensed by the collector lens 309. Then the forward scattered light that has passed through the pinhole 310 is received and subjected to photoelectric conversion by the photodiode 308 to become a pulse-like forward scattered light signal. The fluorescence emitted from the particle in the sample liquid irradiated with the laser beam is condensed by the collector lens 312. Then the fluorescence that has passed through the filter 313 and the pinhole 314 is received and subjected to photoelectric conversion by the photomultiplier tube 311 to become a pulse-like fluorescence signal. The forward scattered light signal and the fluorescence signal are amplified respectively by the amplifiers 315, 316 and are sent to the controlling section 400.
First, the forward scattered light signal and the fluorescence signal detected by the detecting section are input into the signal processing circuit 403.
`c1ccc2scnc2c1` [Benzothiazole] gave a Fluorescence intensity of 92.
`Oc1ccccc1` [Phenol] showed a Fluorescence intensity of 55.
Work on `OCc1ccccc1` [Benzyl alcohol] yielded a Fluorescence intensity of 73.
`CC(=O)Oc1ccccc1` [Phenyl acetate] was tested, and the Fluorescence intensity was 82.
In the case of `CC(O)COc1ccccc1` (stereo not shown) [1-phenoxy-2-propanol], the Fluorescence intensity is reported as 103.
`OCCc1ccccc1` [β-phenethyl alcohol] showed a Fluorescence intensity of 84.

Same assay, conditions: human urine with erythrocytes plus C. glabrata; diluting liquid with 2-phenoxyethanol 7.5 g/l, pH 7.0 (Example 1) versus without (Example 2)
With `OCCOc1ccccc1` [2-phenoxyethanol] the “Fluorescence intensity of yeast-like fungi compared with erythrocytes (two-dimensional scattergram)” value was “larger fluorescence intensity than the erythrocytes”.
